{"source": "patent US12616678B2", "about": "“Methods to of aldehyde dehydrogenases for treatment of cancer” (THE PENN STATE RESEARCH FOUNDATION, priority 2020, dated 2026)", "key": {"ALDH1A1": {"biological_target": "T1, ALDH1A1 (Homo sapiens, UniProt P00352)", "T1 construct": "purchased R & D Systems, Inc, Minneapolis, MN, USA", "T1 sequence (P00352 1-501)": "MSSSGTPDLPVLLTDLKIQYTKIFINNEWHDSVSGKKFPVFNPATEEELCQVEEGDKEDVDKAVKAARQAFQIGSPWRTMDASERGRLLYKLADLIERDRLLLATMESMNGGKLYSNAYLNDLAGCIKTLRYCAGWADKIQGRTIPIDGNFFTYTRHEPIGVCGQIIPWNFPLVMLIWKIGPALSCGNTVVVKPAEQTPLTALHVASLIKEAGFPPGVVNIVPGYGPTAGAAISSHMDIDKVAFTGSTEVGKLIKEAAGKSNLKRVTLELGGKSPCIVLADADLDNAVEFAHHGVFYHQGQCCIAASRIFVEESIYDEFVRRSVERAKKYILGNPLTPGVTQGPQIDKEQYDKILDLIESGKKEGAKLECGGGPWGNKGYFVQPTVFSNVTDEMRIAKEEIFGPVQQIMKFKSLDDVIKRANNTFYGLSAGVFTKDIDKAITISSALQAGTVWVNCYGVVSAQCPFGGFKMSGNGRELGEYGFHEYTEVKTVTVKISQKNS", "assay": "ALDH isoform-specific enzyme assay, ALDH1A1 (NADH absorbance)", "type": "biochemical", "conditions": "read-out: IC50s ALDH1A1", "protocol": "(§2) ALDH enzyme assays were performed using a kit as described by the kit manufacturer (R & D Systems, Inc, Minneapolis, MN, USA). Isoform-specific aldehydes were converted to their respective carboxylic acids along with conversion of NAD+ to NADH (absorbance at 340 nm). […] Similarly, 0.5 μg/mL of ALDH2 was used in the reaction with 2 mM of acetaldehyde as the substrate and 0.2 μg/mL of ALDH3A1 was used in the reaction with 1 mM of 4-nitrobenzaldehyde (4-NBA) as the substrate following addition of ALDH inhibitors.\n(§3) ALDH1A1, 2 and 3A1 enzyme assays were performed as described by the manufacturer (R & D systems). Isoform-specific aldehydes were converted to their respective carboxylic acids along with the conversion of NAD+ to NADH (absorbance at 340 nm)."}, "ALDH2": {"biological_target": "T2, ALDH2 (Homo sapiens, UniProt P05091)", "T2 construct": "purchased R & D Systems, Inc, Minneapolis, MN, USA", "T2 sequence (P05091 18-517)": "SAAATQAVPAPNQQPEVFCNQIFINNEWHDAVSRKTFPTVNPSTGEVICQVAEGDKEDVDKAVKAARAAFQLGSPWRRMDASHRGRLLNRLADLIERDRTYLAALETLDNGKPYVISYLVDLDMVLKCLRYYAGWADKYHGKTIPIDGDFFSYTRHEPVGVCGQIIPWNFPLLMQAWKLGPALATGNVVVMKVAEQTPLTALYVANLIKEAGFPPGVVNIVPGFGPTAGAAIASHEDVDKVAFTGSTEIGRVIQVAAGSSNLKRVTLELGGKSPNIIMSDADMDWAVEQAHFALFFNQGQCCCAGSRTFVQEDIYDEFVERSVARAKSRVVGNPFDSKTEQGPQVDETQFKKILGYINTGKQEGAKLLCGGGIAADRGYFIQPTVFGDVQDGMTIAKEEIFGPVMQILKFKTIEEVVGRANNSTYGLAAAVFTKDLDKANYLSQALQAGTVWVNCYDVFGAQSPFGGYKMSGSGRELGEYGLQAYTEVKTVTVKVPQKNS", "assay": "ALDH isoform-specific enzyme assay, ALDH2 (NADH absorbance)", "type": "biochemical", "conditions": "read-out: IC50s ALDH2", "protocol": "as §2, §3"}, "[1]": {"tested_on": "UACC 903 and 1205 Lu cells", "assay": "Lipid peroxidation (TBARS), melanoma cells", "type": "cell-based, human", "conditions": "5 μM, 24 hours, vs DMSO", "text": "DMSO served as the vehicle control."}, "[2]": {"tested_on": "total cellular ALDH activity, UACC 903 cell lysates", "assay": "Total cellular ALDH activity in cell lysates, UACC 903", "type": "cell-based, human", "conditions": "1 uM, 15 minutes, UACC 903 and 1205 Lu cell lysates", "text": "The ALDHs reduce ROS, lipid peroxidation and toxic aldehyde accumulation, the latter of which can lead to cell damage and apoptosis as shown in FIG. 6A. Thus, inhibition of total cellular ALDH activity can increase toxic aldehydes, oxidative damage and apoptosis."}, "[3]": {"tested_on": "UACC 903 and 1205 Lu cells", "assay": "ROS assay (DCFDA), melanoma cells", "type": "cell-based, human", "conditions": "5 μM, 24 hours, vs DMSO"}, "[4]": {"tested_on": "HCT116 colon cancer cell line", "assay": "Lipid peroxidation and toxic aldehyde accumulation (TBARS), Study 2"}, "[5]": {"tested_on": "HCT116 colon cancer cells", "assay": "Apoptosis by Annexin-V/7-AAD, HCT116", "type": "cell-based", "set-up": "dose or concentration left out as unconfirmed", "conditions": "vs DMSO control or 3a"}, "[6]": {"tested_on": "multiple myeloma cell lines (NCIH929, U266, RPMI8226, MM.1R)", "assay": "MTS cell viability assay, multiple myeloma cells", "type": "cell-based", "conditions": "72 hours, read-out: Average IC50s across all multiple myeloma cell lines tested", "text": "(§1) Tumour Biol 2017; 39(3):1010428317694565; Rao P C, et al., Cytotoxicity of withasteroids: withametelin induces cell cycle arrest at G2/M phase and mitochondria-mediated apoptosis in non-small cell lung cancer A549 cells. Tumour Biol 2016; 37(9):12579-87; Dinavahi S S, et al., Combined inhibition of PDE4 and PI3Kdelta modulates the inflammatory component involved in the progression of chronic obstructive pulmonary disease. Drug Res (Stuttg) 2014; 64(4):214-9). Briefly, 3,000 cells per well were plated in a 96-well plate and incubated overnight at 37° C. in a 5% CO2 atmosphere. […] 20 μL of MTS reagent was then added into each well and formation of […] was measured by absorbance after 1 hour at 492 nm. IC50 values for each experimental group were measured in 3 independent experiments using GraphPad Prism version 7.04 (GraphPad Software, La Jolla, CA)."}, "[7]": {"tested_on": "colon cell lines (HCT116, HT29)", "assay": "ROS assay (DCFDA) with or without NAC, Study 2", "type": "cell-based", "protocol": "ROS activity was measured using DCFDA dye. […] Cells were incubated with 10 μM of DCFDA for 1 hour, and fluorescence was measured at 485 nm excitation and 510 nm emission. ROS levels in treated cells were compared to DMSO control."}, "[8]": {"tested_on": "colon cancer cell line HCT116", "assay": "Cell cycle by propidium iodide staining, HCT116", "type": "cell-based", "conditions": "reversed by addition of NAC"}, "Swiss-Webster mice": {"tested_on": "Swiss-Webster mice", "assay": "Toxicity study, 14 days", "type": "in vivo, mouse", "conditions": "5 mg/kg/day i.p. for 14 days, vs DMSO", "description": "To determine the toxicity of 3(h-l), compounds were injected i.p. into Swiss-Webster mice once daily for 14 days (Id.). Animals were monitored for changes in body weight, behavior and physical distress compared to DMSO control."}, "[9]": {"tested_on": "Colon cancer cells (HCT116 and HT29)", "assay": "MTS cell viability assay, colon cancer cells", "type": "cell-based", "conditions": "HCT116 and HT29, 72 hours; read-out: Average IC50s across both colon cancer cell lines", "text": "as §1"}, "[10]": {"tested_on": "colon cancer cell line, HCT116", "assay": "Cell survival MTS assay with addition of NAC", "type": "cell-based", "protocol": "(§4) Briefly, 3,000 cells per well were plated in a 96-well plate and incubated overnight at 37° C. in a 5% CO2 atmosphere. […] 20 μL of MTS reagent was then added into each well and formation of tetrazolium was measured by absorbance after 1 hour at 492 nm. IC50 values for each experimental group were measured in 3 independent experiments using GraphPad Prism version 7.04 (GraphPad Software, La Jolla, CA)."}, "ALDH3A1": {"biological_target": "T3, ALDH3A1 (Homo sapiens, UniProt P30838)", "T3 construct": "purchased R & D Systems, Inc, Minneapolis, MN, USA", "T3 sequence (P30838 1-453)": "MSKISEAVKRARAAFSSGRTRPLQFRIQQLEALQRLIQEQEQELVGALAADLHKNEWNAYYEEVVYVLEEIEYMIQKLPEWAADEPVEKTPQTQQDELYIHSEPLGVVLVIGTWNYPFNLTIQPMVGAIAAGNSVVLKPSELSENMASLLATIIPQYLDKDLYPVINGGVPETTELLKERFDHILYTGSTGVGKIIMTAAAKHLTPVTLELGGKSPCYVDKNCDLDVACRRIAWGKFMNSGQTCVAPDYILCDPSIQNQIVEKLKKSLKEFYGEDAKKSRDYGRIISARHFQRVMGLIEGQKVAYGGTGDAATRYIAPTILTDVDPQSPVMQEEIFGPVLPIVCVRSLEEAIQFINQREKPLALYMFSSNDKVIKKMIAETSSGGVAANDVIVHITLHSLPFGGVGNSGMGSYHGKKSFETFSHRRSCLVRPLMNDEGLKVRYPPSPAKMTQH", "assay": "ALDH isoform-specific enzyme assay, ALDH3A1 (NADH absorbance)", "type": "biochemical", "protocol": "as §2, §3"}, "[11]": {"tested_on": "melanoma cells (UACC 903 and 1205 Lu) and normal human fibroblasts (FF2441)", "assay": "MTS cell viability assay, all the cell lines evaluated", "type": "cell-based", "conditions": "read-out: IC50s in all the cell lines evaluated", "text": "as §1"}, "UACC 903 cells": {"tested_on": "UACC 903 cells", "assay": "MTS cell viability assay, UACC 903", "type": "cell-based, human", "conditions": "100 μM, 72 hours", "protocol": "Cell viability assays of UACC 903 cells transfected with siRNA, and melanoma cell lines (UACC 903, 1205 Lu, C8161.CI9, MelJuSo), FF2441 and NHEM cells treated with ALDH inhibitors were performed. For this, 5,000 cells per well were plated in a 96-well plate and incubated overnight at 37° C. in a 5% CO2 atmosphere. For the siRNA knockdown experiment, cells were incubated for another 72 hours. For the ALDH inhibitor experiments, cells were treated with agents at various concentrations and incubated for 72 hours. 20 μL of MTS reagent was then added into each well and formation of tetrazolium was measured by absorbance after 1 hour at 492 nm. IC50 values or % cells for each experimental group were measured in three independent experiments using GraphPad Prism version 7.04 (GraphPad Software, La Jolla, CA).\nas §4"}}, "note": "Where a name gives a salt, the structure may show the parent alone. Read-outs that look alike come from different tables or passages of the source.", "data": [{"smiles": "Cc1nc2ccccc2n1S(=O)(=O)c1ccc(F)cc1", "note": "[CB7]", "values": [{"measurement": "IC50", "setting": "ALDH1A1", "value": 139, "unit": "µM"}, {"measurement": "IC50", "setting": "ALDH2", "value": 144, "unit": "µM"}]}, {"smiles": "CCOC(=O)CSc1nc2c(sc3ccccc32)c(=O)n1CCCN1CCCC1", "note": "[CM037]", "values": [{"measurement": "lipid peroxidation and toxic aldehyde accumulation", "setting": "[1]", "value": "significantly increased lipid peroxidation and toxic aldehyde accumulation"}, {"measurement": "effect on total cellular ALDH activity", "setting": "[2]", "value": "significantly reduced"}, {"measurement": "ROS levels", "setting": "[3]", "value": "significantly increased ROS levels"}]}, {"smiles": "Br.N=C(N)SCc1ccc(CN2C(=O)C(=O)c3cc(C(F)(F)F)ccc32)cc1", "note": "[Compound 3h, 2-[4-(2,3-Dioxo-5-trifluoromethyl-2,3-dihydroindol-1-ylmethyl)benzyl]isothiourea hydrobromide]", "values": [{"measurement": "lipid peroxidation and toxic aldehyde accumulation", "setting": "[4]; 5 μM, 24 hours, vs DMSO", "value": "significantly increased"}, {"measurement": "lipid peroxidation effect on addition of NAC", "setting": "[4]; with NAC", "value": "abrogated"}, {"measurement": "percentage of cells both Annexin-V and 7-AAD positive", "setting": "[5]", "value": "significantly higher"}, {"measurement": "IC50", "setting": "[6]", "value": 1.9, "unit": "µM"}, {"measurement": "ROS levels", "setting": "[7]; 5 μM, 24 hours, vs DMSO", "value": "significantly increased ROS levels"}, {"measurement": "ROS-inducing activity on addition of N-Acetyl Cysteine (NAC)", "setting": "[7]; with NAC", "value": "abrogated"}, {"measurement": "cell cycle effect", "setting": "[8]", "value": "G2/M arrest"}, {"measurement": "weight loss", "setting": "Swiss-Webster mice", "value": "no significant weight loss"}, {"measurement": "IC50", "setting": "[9]", "value": 5.3, "unit": "µM"}, {"measurement": "increase of cell killing IC50 on addition of NAC", "setting": "[10]", "value": 6, "unit": "fold"}]}, {"smiles": "N=C(N)SCc1ccc(CN2C(=O)C(=O)c3cc(Cl)cc(Cl)c32)cc1", "note": "[Compound 3k, 2-[4-(5,7-Dichloro-2,3-dioxo-2,3-dihydroindol-1-ylmethyl)benzyl]isothiourea hydrobromide]", "values": [{"measurement": "IC50", "setting": "[6]", "value": 1.6, "unit": "µM"}, {"measurement": "IC50", "setting": "[9]", "value": 2.9, "unit": "µM"}]}, {"smiles": "N=C(N)[Se]Cc1ccc(CN2C(=O)C(=O)c3cc(Br)ccc32)cc1", "note": "[Compound 4b, 2-[4-(5-Bromo-2,3-dioxo-2,3-dihydroindol-1-ylmethyl)benzyl]isoselenourea hydrobromide]", "values": [{"measurement": "inhibition at 0.5 µM", "setting": "ALDH3A1; read-out: % inhibition of ALDH3A1", "value": "≥ 60", "unit": "%"}]}, {"smiles": "O=C1C(=O)N(Cc2ccccc2)c2ccccc21", "note": "[Cpd 3]", "values": [{"measurement": "IC50", "setting": "[11]", "value": "> 100", "unit": "µM"}]}, {"smiles": "CCN(CC)c1ccc(C=O)cc1", "note": "[DEAB]", "values": [{"measurement": "lipid peroxidation and toxic aldehyde accumulation", "setting": "[1]", "value": "significantly increased lipid peroxidation and toxic aldehyde accumulation"}, {"measurement": "IC50", "setting": "ALDH3A1; as rounded in text, read-out: IC50 ALDH3A1", "value": 15.1, "unit": "µM"}, {"measurement": "IC50", "setting": "ALDH3A1; read-out: IC50s ALDH3A1", "value": 15.1, "unit": "µM"}, {"measurement": "effect on total cellular ALDH activity", "setting": "[2]", "value": "significantly reduced"}, {"measurement": "reduction of UACC 903 cell survival", "setting": "UACC 903 cells", "value": 30, "unit": "%"}, {"measurement": "ROS levels", "setting": "[3]", "value": "significantly increased ROS levels"}]}, {"smiles": "O=C1Nc2ccccc2C1=O", "note": "[Isatin]", "values": [{"measurement": "effect on total cellular ALDH activity", "setting": "[2]", "value": "ineffective"}]}]}
